In brackets after ≈: the same amount, converted by molar mass. Residues, ends and D or L forms follow the SMILES beside them.
Experiments:
HeLa cells = test system: HeLa cells; design: method as in PMID 20517955; conditions: cited from earlier work
SD rats [1] = assay: 28-day repeated dose toxicity study; format: in vivo, rat; conditions: slow IV bolus twice weekly for 4 weeks, 4 weeks recovery; male and female SD rats; highest dose tested
Method: Four weeks of repeated dosing followed by four weeks of recovery was performed in female and male SD rats, via slow IV bolus of the INS peptide. Eighty rats (40 males and 40 females) were utilized for the main study groups (n = 10 per study group). An additional 40 animals (20 males and 20 females) were used as recovery groups (n = 5 per study group). Group allocation was done without investigator blinding. Study evaluations included: mortality and morbidity, body weight, food consumption, clinical signs, ophthalmological observation, blood collection for hematology, clinical chemistry, coagulation, urine analysis, necropsy, and gross pathology, organ weight, and histopathology. The study was approved by the Institutional Review Board of Tel Aviv Sourasky Medical Center.

[2] = test system: Lymphocytes of healthy volunteers; assay: Cytotoxicity of peptides, WST-1; format: cell-based, human; conditions: peptide alone
Method: Written informed consent was obtained from all eligible participants prior to entry into the study. Approval for this study was provided by Kaplan Medical Center’s Ethics Committee (Protocol No. ZMS1/2016). Lymphocytes of healthy volunteers were isolated from the peripheral blood by Ficoll-Paque density gradient centrifugation. Cells were incubated in DMEM with different peptide concentrations for 72 h. Then, 100 µl of cells were taken for toxicity testing using a quantitative cell viability test, the WST-1 assay.

[3] = Stability test in human plasma; format: in vitro ADME; conditions: for Analyte Remaining % / Concentration calculated from LC-MS data: human plasma, 10 mg/ml stock into plasma 1:1, LC-MS; for Concentration calculated from LC-MS data: methanol precipitation, 0.45 µm filtration; for Stability: rat and human plasma
Method: (§1) Analytic HPLC-MS was performed using an Agilent 1260 series Liquid Chromatography/Mass Selective Detector (MSD) equipped with an electrospray interface and a UV diode array detector. Analyses were performed on an ACE C8, 50 × 3.0 mm, 3 µm column, with an isocratic 0.1% formic acid/ACN eluent, at a rate of 1 ml/min over a period of 5 min. UV absorption was measured at 280 nm, 220 nm, and 215–395 nm. MS analysis was performed with ESI (electron spray ionization) with a positive ionization method.
(§2) Four reaction systems were prepared; INS and INR2 in human plasma, INS and INR2 in rat plasma (Supplementary Table 2). Freshly prepared 10 mg/ml stock solution of the peptides was injected into plasma or PBS solution (1:1). The mixture was diluted with methanol to precipitate the plasma proteins. The samples were filtered through PTFE 0.45 µm filters and run in LC-MS. Samples were taken at the following times: 0, 15, 30, 60, 120, 240, and 480 min and after 24 h.

SD rats [4] = assay: Immunogenicity, anti-peptide antibody ELISA; format: in vivo, rat; conditions: biweekly administrations over 10 weeks, serum 1:50
Method: Animals were fed ad libitum a commercial rodent diet (Teklad Certified Global 18% Protein Diet). Animals had free access to sterilized and acidified drinking water (pH between 2.5 and 3.5). SD rats were randomly allocated to cages and treated twice a week, for ten weeks with INS peptide, at two doses of 1.5 and 7.5 mg/kg. Rat blood was collected before immunization (exposure to the peptide) to serve as a baseline, and after immunization at day 21, 35, 49, and 70/72. The immunogenicity was analyzed by evaluation of anti-peptide antibodies in the sera of SD rats, using a specific developed ELISA test. A 96 well plate was coated overnight with INS labeled with biotin (5 µg/ml) (Thermo Scientific) followed by blocking (3% Milk in PBS) for 1 h at room temperature (RT). Serum samples were diluted at 1:50 and added to the plates for 1 h at RT. After washing with PBST (three times), a donkey anti-rat antibody (Jackson Laboratories, cat. no. 705-035-003) (diluted 1:5000) was added and incubated for 1 h at RT. Then, TMB, diluted 1:2 was added and the reaction was stopped after 10 min with HCL solution. Absorbance was measured by an automated microplate reader (iMARK microplate reader, BioRad) with a wavelength of 450 nm.

[5] = Solubility of IN-derived peptides in PBS; format: physicochemical; conditions: for Solubility: at 0 min, verified at 60 min, LC-MS
Method: as §1, §2
(§3) Plasma solubility was determined at 0 min and was verified at 60 min (if no degradation was observed).

[6] = Solubility of IN-derived peptides in human plasma; format: physicochemical; conditions: LC-MS
Method: as §1, §2, §3

H1975 lung cancer cells = assay: Cytotoxicity of peptides without lentiviral particles, MTT; format: cell-based, human; conditions: peptide alone, three times over ten days
Method: H1975 lung cancer cells were treated three times over the course of 10 days (on days 2, 4, and 7) with different concentrations of the tested peptides. Following ten days of incubation, cells were analyzed for potential toxicity using a quantitative cell viability test, the MTT assay.

[7] = Solubility of IN-derived peptides in rat plasma; format: physicochemical; conditions: LC-MS
Method: as §1, §2, §3

[8] = Stability test in rat plasma; format: in vitro ADME; conditions: for Analyte Remaining %: 10 mg/ml stock into plasma 1:1, LC-MS; for Concentration calculated from LC-MS data: 10 mg/ml stock into plasma 1:1, methanol precipitation, 0.45 µm filtration
Method: as §1, §2

[9] = from 5 mg/mL sample (10 mg/ml stock into plasma 1:1), at 0 min, verified at 60 min, methanol precipitation, PTFE 0.45 µm filtration

CC[C@H](C)[C@H](NC(=O)[C@H](Cc1ccccc1)NC(=O)[C@@H](NC(=O)[C@H](C)NC(=O)[C@H](CCSC)NC(=O)[C@H](CCC(N)=O)NC(=O)[C@@H](NC(=O)[C@H](C)NC(=O)[C@@H](NC(=O)[C@@H](N)Cc1c[nH]c2ccccc12)[C@@H](C)O)C(C)C)C(C)C)C(=O)N[C@@H](Cc1c[nH]cn1)C(=O)N[C@@H](CC(N)=O)C(=O)N[C@@H](Cc1ccccc1)C(=O)N[C@@H](CCCCN)C(=O)N[C@@H](CCCNC(=N)N)C(=O)N[C@@H](CCCCN)C(=O)O [INS] (H-WTAVQMAVFIHNFKRK-OH)
Cell permeability (HeLa cells): cell-permeable | Toxicity (HeLa cells): non-toxic | no-observed-adverse-effect level (NOAEL) (SD rats [1]): 7.5 mg/kg | Viability of primary lymphocytes [2]: not affected | Analyte Remaining % ([3]; 0 h): 65.7% | Concentration calculated from LC-MS data ([3]; 0 h): 3.29 mg/mL | Analyte Remaining % ([3]; 0.25 h): 60.9% | Concentration calculated from LC-MS data ([3]; 0.25 h): 3.04 mg/mL | Analyte Remaining % ([3]; 0.5 h): 71.1% | Concentration calculated from LC-MS data ([3]; 0.5 h): 3.59 mg/mL | Analyte Remaining % ([3]; 1 h): 58.4% | Concentration calculated from LC-MS data ([3]; 1 h): 2.92 mg/mL | Analyte Remaining % ([3]; 2 h): 62.7% | Concentration calculated from LC-MS data ([3]; 2 h): 3.13 mg/mL | Analyte Remaining % ([3]; 4 h): 62.2% | Concentration calculated from LC-MS data ([3]; 4 h): 3.11 mg/mL | Analyte Remaining % ([3]; 8 h): 44.2% | Concentration calculated from LC-MS data ([3]; 8 h): 2.21 mg/mL | Analyte Remaining % ([3]; 24 h): 23.8% | Concentration calculated from LC-MS data ([3]; 24 h): 1.19 mg/mL | Stability ([3]; after 8 h): 40% | Stability ([3]; after 24 h): ~ 25% | Immunogenicity (anti-peptide antibodies, ELISA; words) (SD rats [4]; dose level 1.5 (mg/kg)): no | Immunogenicity (anti-peptide antibodies, ELISA; words) (SD rats [4]; dose level 7.5 (mg/kg)): very low | Solubility ([5]; % of 5 mg/mL sample): 89.2% | Solubility ([5]; from 5 mg/mL sample (10 mg/ml stock into PBS 1:1), methanol dilution, PTFE 0.45 µm filtration): 4.46 mg/mL (≈ 2260 µM) | Solubility (in words) ([5]; rat and human plasma): highly soluble | Solubility ([6]; % of 5 mg/mL sample): 62% | Solubility [6, 9]: 3.1 mg/mL (≈ 1570 µM) | Effect on lung cancer cell viability (H1975 lung cancer cells): no effect | Solubility ([7]; % of 5 mg/mL sample): 80.2% | Solubility [7, 9]: 4.01 mg/mL (≈ 2030 µM) | Analyte Remaining % ([8]; 0 h): 80.3% | Concentration calculated from LC-MS data ([8]; 0 h): 4.01 mg/mL | Analyte Remaining % ([8]; 0.25 h): 68.2% | Concentration calculated from LC-MS data ([8]; 0.25 h): 3.41 mg/mL | Analyte Remaining % ([8]; 0.5 h): 65.3% | Concentration calculated from LC-MS data ([8]; 0.5 h): 3.26 mg/mL | Analyte Remaining % ([8]; 1 h): 58.9% | Concentration calculated from LC-MS data ([8]; 1 h): 2.94 mg/mL | Analyte Remaining % ([8]; 2 h): 50.5% | Concentration calculated from LC-MS data ([8]; 2 h): 2.53 mg/mL | Analyte Remaining % ([8]; 4 h): 38.6% | Concentration calculated from LC-MS data ([8]; 4 h): 1.93 mg/mL | Analyte Remaining % ([8]; 8 h): 36.1% | Concentration calculated from LC-MS data ([8]; 8 h): 1.8 mg/mL | Analyte Remaining % ([8]; 24 h): 14.8% | Concentration calculated from LC-MS data ([8]; 24 h): 0.74 mg/mL

Reference: paper PMC8175240, “Integrase-derived peptides together with CD24-targeted lentiviral particles inhibit the growth of CD24 expressing cancer cells” (Oncogene, 2021)
